Values joined by “and” are separate entries in the source; they are usually repeats but may differ in a detail not shown here. Identical values can stand only once. Like-named read-outs stand apart in the source and are kept apart here. Where no end group is shown, it is not given here. The star is where a group is joined. Biotin = O=C1N[C@H]2[C@H](CS[C@H]2CCCCC(=O)*)N1
Assays:
[1] = molecular target: T1, HIV-1 CA CTD/CAI interaction (Human immunodeficiency virus type 1 group M subtype B, UniProt P12493); experiment: biochemical; format: binding; details: for inhibition at 50 µM: read-out: IR (%), inhibitory rate; for IC50: 12-point two-fold dilution 50 to 0.024 μM, n = 3
T1 construct: DNA encoding the CA CTD was cloned into BamHI-NotI sites of prokaryotic expression vector pGEX-4 T-1; made in house; host or cells: E. coli BL21(DE3)
Procedure: The Discovery Probe FDA-approved Drug Library comprised 1,971 compounds, which were available as stock solutions at 10 mM concentrations in DMSO. Primary screening of these compounds was conducted using a previously established HTRF assay ([Zhang et al., 2019]). Briefly, compound (1 μL), CAI-biotin peptide (2 μL) and GST-CA CTD (2 μL) were dispensed into 384-well microplates. After 30 min incubation at room temperature, 5 μL premixed HTRF agents were added. After an additional 1 h incubation at room temperature, the HTRF signal was acquired by reading the plates in a PerkinElmer Envision Multilabel Plate Reader. Data were analyzed and visualized using GraphPad Prism (version 5.0). […] The quality of the assay was determined by calculating the Z’-factor using the following equation: Z’ = 1 - (3 × SDmax + 3 × SDmin) / |μmax - μmin|, where SDmax and SDmin represent the standard deviations of the positive and negative control measurements, respectively, and μmax and μmin represent the means of the respective positive and negative signal controls ([Zhang et al., 1999]).
We screened a library of 1,971 small molecules, all of which were FDA-approved. Each compound was tested in duplicate at a concentration of 50 μM. […] The remaining compounds were further validated through dose–response analysis using the HTRF assay.
Seven hit compounds were repurchased and subjected to a 12-point two-fold serial dilution, from 50 to 0.024 μM. […] This assay was conducted using three different concentrations of the compounds to determine their binding to monomeric CA.

SARS-CoV-2 main protease = details: cited from earlier work
HIV-1 CA monomer (WT) = molecular target: T2, HIV-1 CA monomer (WT) (Human immunodeficiency virus type 1 group M subtype B, UniProt P12493); experiment: biochemical; format: binding; details: 7.5–30 μM compound, 1:1 model, mean ± SD
T2 construct: capsid proteins (CA) released by proteolytic processing of Gag; made in house

HIV-1 CA monomer (L211S) = HIV-1 CA monomer (L211S) (Human immunodeficiency virus type 1 group M subtype B, UniProt P12493, L343S); experiment: biochemical; format: binding
HIV-1 CA monomer (L211A) [2] = molecular target: HIV-1 CA monomer (L211A) (Human immunodeficiency virus type 1 group M subtype B, UniProt P12493, L343A); experiment: biochemical; format: binding
HIV-1 CA = molecular target: T3, HIV-1 CA (Human immunodeficiency virus type 1 group M subtype B, UniProt P12493); experiment: In vitro assembly of recombinant CA (absorbance at 350 nm); format: biochemical; details: 2.5 M NaCl, absorbance at 350 nm over time
T3 construct: capsid proteins (CA) released by proteolytic processing of Gag; made in house
Procedure: To monitor the in vitro assembly of HIV-1 CA in the presence and absence of hit compounds, changes in sample absorbance over time at 350 nm were measured, as previously described ([Lanman et al., 2002]; [Tang et al., 2003]; [Xu et al., 2018]). To initiate the assay, 1 μL of 5 mM SA or SB was added to 74 μL of buffer composed of a mixture of 5 M NaCl and 200 mM NaH2PO4 (pH 8.0) in a ratio of 2:1 by volume. Subsequently, 25 μL of CA (120 μM) was added to each well and DMSO served as a vehicle control. After a 2-min equilibration period, sample absorbance values were measured at 350 nm every 60 s for 39 min using a Perkin Elmer Envision microplate reader and were corrected by subtracting the absorbance values of a blank sample without sodium chloride. The resulting data were analyzed using GraphPad Prism 5.0.
Under high ionic strength conditions, recombinant CA can spontaneously oligomerize and form open-ended helical tubes consisting of repeating CA hexamers. To investigate the impact of SA and SB on CA tube assembly, we monitored in vitro CA assembly in the presence and absence of SA and SB by measuring changes in light absorbance over time in 2.5 M NaCl. CA (25 μM) for CA. […] We used BLI to determine the KD values of SA and SB in the HIV-1 CA hexamer.
Figure 4 Sennoside A and Sennoside B induced CA multimerization in vitro. (A–B) Light scattering (absorbance at 350 nm) responses showing the rate and extent of in vitro CA (20 μM) assembly in 2.5 M NaCl, in absence of compounds (mock) and the presence of Sennoside A and Sennoside B or CAI. Data are representative of three independent experiments. (C–D) Representative binding sensorgrams depicting the interaction of SA or SB with CA hexamer assessed by bio-layer interferometry (BLI) detection.

HIV-1 CA monomer (E187A) = HIV-1 CA monomer (E187A) (Human immunodeficiency virus type 1 group M subtype B, UniProt P12493, E319A); experiment: biochemical; format: binding
HIV-1 CA hexamer = HIV-1 CA hexamer (Human immunodeficiency virus type 1 group M subtype B, UniProt P12493, A146C/E177C/M317A/W316A); experiment: BLI binding to CA hexamer
Cytotoxicity, MTT assay = format: cell-based; details: human, C8166 cells
Procedure: (§1) Anti-HIV-1 activity was determined by an assay based on virus-induced cytopathic effects (CPE) ([Zhang et al., 2020]). Briefly, C8166 cells were infected with HIV-1 at a multiplicity of infection (M.O.I) of 0.03, with DMSO or diluted SA or SB in 96-well plates. […] The cytotoxicity of the compounds was determined by a tetrazolium dye (MTT) based assay. C8166 cells were co-incubated with diluted SA or SB in 96-well plates. After 3 days, cell viability was determined using MTT, and the 50% cytotoxicity concentration (CC50) was calculated. […] Tenofovir disoproxil fumarate (TDF) was used as a positive control.
(§2) To further evaluate the antiviral effects of SA and SB, we tested them for protecting C8166 cells from HIV-1-induced CPE. The cytotoxic effect of these compounds on C8166 cells was also assessed.

HIV-1 [3] = experiment: Anti-HIV-1 activity, virus-induced cytopathic effect in C8166 cells; format: cell-based; details: for IC50: Human immunodeficiency virus 1, M.O.I 0.03, 72 h, read-out: IC50 against HIV-1 induced CPE
Procedure: as §1, §2

HIV-1 CA monomer (N183A) = HIV-1 CA monomer (N183A) (Human immunodeficiency virus type 1 group M subtype B, UniProt P12493, N315A); experiment: biochemical; format: binding
HIV-1 CA monomer (Y169A) = HIV-1 CA monomer (Y169A) (Human immunodeficiency virus type 1 group M subtype B, UniProt P12493, Y301A); experiment: biochemical; format: binding
[4] = molecular target: T4, CA hexamer/CPSF6 peptide interaction (Human immunodeficiency virus type 1 group M subtype B, UniProt P12493, A146C/E177C/M317A/W316A); format: binding, HIV-1
T4 construct: capsid proteins (CA) released by proteolytic processing of Gag; made in house
Procedure: As mentioned previously, this pocket is the binding site for two host cell proteins, CPSF6 and NUP153 ([Price et al., 2014]). […] We then performed a BLI-based competition assay. CA hexamer at a concentration of 5 μM, either alone or in combination with high concentrations of SA or SB or PF-74, were used to bind to the SA biosensor loaded with biotinylated CPSF6_313–327 or NUP153_1407–1423.
Biotinylated hexameric CA was firstly loaded to streptavidin-coated biosensors. Then the biosensors were dipped into the plate wells containing CPSF6_308-327 or NUP153_1407–1423 in the absence or presence of PF74 or SA or SB. BLI signals were captured by Octet96 system and data were normalized according to the signal in the absence of compound. Comparisons between data were carried out using the paired t-test by GraphPad Prism 5.0. The double asterisk (^**) and three asterisks (^***) represent p < 0.01 and < 0.001 from the paired t test, respectively.

integrase = molecular target: integrase; design: method as in Esposito et al., 2016; details: ref Esposito et al., 2016; cited from earlier work
HIV-1 CA monomer (L211A) [5] = experiment: biochemical; format: binding; details: CA L211A compared to WT CA
protease of zika virus = details: ref Coelho et al., 2022; cited from earlier work
RNase H = molecular target: RNase H; design: method as in Esposito et al., 2016; details: ref Esposito et al., 2016; cited from earlier work
HIV-1 [6] = test system: HIV-1; design: method as in Esposito et al., 2016; details: cell-based assays, ref Esposito et al., 2016; read-out: EC50, anti-HIV-1 activity; cited from earlier work
[7] = molecular target: HIV-1 reverse transcriptase-associated DNA Polymerase; design: method as in Esposito et al., 2016; details: ref Esposito et al., 2016; cited from earlier work
[8] = primary screening, compound at 50 μM, duplicate
[9] = 5 μM CA hexamer, PF74 2.5 μM, SA 225 μM, SB 175 μM

O=C(O)CCCC[C@@H]1SC[C@@H]2NC(=O)N[C@@H]21 [Biotin]
inhibition at 50 µM [1]: 98.8%

CC[C@H](C)C[C@H](C)CCCCCCCCC(=O)N[C@H]1C[C@@H](O)[C@@H](NCCN)NC(=O)[C@@H]2[C@@H](O)CCN2C(=O)[C@H]([C@H](O)CCN)NC(=O)[C@H]([C@H](O)[C@@H](O)c2ccc(O)cc2)NC(=O)[C@@H]2C[C@@H](O)CN2C(=O)[C@H]([C@@H](C)O)NC1=O [Caspofungin]
IC50 [1]: 29.5 µM | inhibition at 50 µM [1, 8]: 94.2%

O=C(O)c1cc(O)c2c(c1)[C@@H]([C@H]1c3cc(C(=O)O)cc(O)c3C(=O)c3c(O[C@@H]4O[C@H](CO)[C@@H](O)[C@H](O)[C@H]4O)cccc31)c1cccc(O[C@@H]3O[C@H](CO)[C@@H](O)[C@H](O)[C@H]3O)c1C2=O [Sennoside B, sennoside B]
IC50 (SARS-CoV-2 main protease): 0.104 µM | Kd (HIV-1 CA monomer (WT)): 1.62 µM | Kd (HIV-1 CA monomer (L211S)): 4.84 ± 0.12 µM | Kd (HIV-1 CA monomer (L211A) [2]): 2.52 ± 0.07 µM | effect on in vitro CA assembly (HIV-1 CA): increased in vitro CA assembly in a dose-dependent manner | IC50 [1]: 0.08 µM | inhibition at 50 µM [1, 8]: 95.1% | Kd (HIV-1 CA monomer (E187A)): 6.77 ± 0.2 µM | Kd (HIV-1 CA hexamer): 2.25 µM and 1.75 µM | CC50 at 3 days (Cytotoxicity, MTT assay): 33.4 µM | selectivity index (SI = CC50/EC50) (HIV-1 [3]): less than 10 | IC50 (HIV-1 [3]): 4.73 µM | Kd (HIV-1 CA monomer (N183A)): 3.96 ± 0.11 µM | Kd (HIV-1 CA monomer (Y169A)): 2.8 ± 0.07 µM | effect on CA hexamer/CPSF6 peptide interaction [4, 9]: inhibited

O=C(O)c1cc(O)c2c(c1)[C@H]([C@H]1c3cc(C(=O)O)cc(O)c3C(=O)c3c(O[C@@H]4O[C@H](CO)[C@@H](O)[C@H](O)[C@H]4O)cccc31)c1cccc(O[C@@H]3O[C@H](CO)[C@@H](O)[C@H](O)[C@H]3O)c1C2=O [Sennoside A, sennoside A]
Kd (HIV-1 CA monomer (WT)): 2.34 µM | Kd (HIV-1 CA monomer (L211S)): 7 ± 0.18 µM | IC50 (integrase): 3.8 µM | KD fold change (HIV-1 CA monomer (L211A) [5]): 1.35 | Kd (HIV-1 CA monomer (L211A) [2]): 3.17 ± 0.09 µM | effect on in vitro CA assembly (HIV-1 CA): increased in vitro CA assembly in a dose-dependent manner | IC50 (protease of zika virus): 0.66 µM | IC50 [1]: 0.18 µM | inhibition at 50 µM [1, 8]: 94.7% | Kd (HIV-1 CA monomer (E187A)): 7.69 ± 0.25 µM | Kd (HIV-1 CA hexamer): 1.75 µM and 2.25 µM | CC50 at 3 days (Cytotoxicity, MTT assay): 22.6 µM | selectivity index (SI = CC50/EC50) (HIV-1 [3]): less than 10 | IC50 (HIV-1 [3]): 2.27 µM | Kd (HIV-1 CA monomer (N183A)): 1.95 ± 0.06 µM | IC50 (RNase H): 1.9 µM | EC50 (HIV-1 [6]): ~9 µM | Kd (HIV-1 CA monomer (Y169A)): 8.8 ± 0.29 µM | IC50 [7]: 5.3 µM | effect on CA hexamer/CPSF6 peptide interaction [4, 9]: inhibited

CCCCCCCCCCCC1=C(O)C(=O)C=C(O)C1=O [Embelin]
inhibition at 50 µM [1, 8]: 94.3%

CAI: dodecapeptide capsid assembly inhibitor identified by phage display, positive control (ITFEDLLDYYPGGGSK(Biotin))
effect on in vitro CA assembly (HIV-1 CA): inhibited CA assembly in vitro

PF-74
effect on CA hexamer/CPSF6 peptide interaction [4]: inhibited, to a degree

From article PMC10561090, “Modulation of HIV-1 capsid multimerization by sennoside A and sennoside B via interaction with the NTD/CTD interface in capsid hexamer” (Frontiers in Microbiology, 2023)
